Key:
GLUT4 mRNA expression [1] = assay: GLUT4 mRNA expression in muscle tissue, DIO model in mice; format: in vivo, C57B1/6j mice; settings: 14 weeks of treatment, 3 or 9 mg/kg, NC or HFD, vs vehicle
Excerpt: (§1) Metabolic syndrome in humans is characterized by abdominal obesity, high triglycerides, impaired fasting glucose and hyperinsulinemia. In the DIO model, mice are fed high fat diet (HFD, Research diet D12492, Research Diet, N.J.) diet (58% lard) for the entire period of the study. Compared to normal chow (NC, Harlan-Tekland #8604, WI) fed animals the HF fed mice develop several features of metabolic syndrome such as hypertriglyceridemia, hyperinsulinemia and mild hyperglycemia, as early as two weeks, on this diet. […] Additionally, GLUT4 expression is down regulated in HF-fed C57B1/6j mice after 4 weeks. […]
(§2) C57B1/6j mice (n=5-6 for each group) were fed ad libitum with either the HFD (58% fat) or NC (5%) diet for 4 weeks prior to start of experiments, and throughout the course of each experiment (Days −27 to Day 60). […] Plasma Insulin, and glucose levels under fasting and postprandial (PP) conditions were measured using the Ultrasensitive Mouse Insulin ELISA kit (Mercodia) and glucometer (Accu-Check Compact, Roche) respectively. […] Tissues were collected at sacrifice at 3-4 hours post dosing with compound 1 or compound 2 in a fed state and GLUT4 mRNA expression was assessed using GLUT4 specific probes and branched DNA (bDNA) analyses (Epicenter Biotechnologies).

GLUT4 mRNA expression [2] = assay: GLUT4 mRNA expression in adipose tissue, DIO model in mice; format: in vivo, C57B1/6j mice; settings: 3 or 9 mg/kg
Excerpt: as §1, §2

[3] = Compound level in adipose tissue by LC/Mass Spec, DIO model in mice; format: in vivo, C57B1/6j mice; settings: 8 weeks of treatment, 3 or 9 mg/kg/d Compound 1 vs 3 mg/kg/day Compound 2
Method: (§3) C57B1/6j mice (n=5-6 for each group) were fed ad libitum with either the HFD (58% fat) or NC (5%) diet for 4 weeks prior to start of experiments, and throughout the course of each experiment (Days −27 to Day 60). Starting on Day 1, mice were dosed BID with either 3 mg/kg Compound 1+vehicle, 9 mg/kg Compound 1+vehicle, 3 mg/kg Compound 2+vehicle, or vehicle alone, for the entire period of the study (day 0-60). Plasma Insulin, and glucose levels under fasting and postprandial (PP) conditions were measured using the Ultrasensitive Mouse Insulin ELISA kit (Mercodia) and glucometer (Accu-Check Compact, Roche) respectively. Appropriate dilutions were made in each case to ensure that the samples remained in the linear range of the standard curve. Animals were sacrificed and levels of Compound 1 and Compound 2 in adipose and muscle tissue were assayed using LC/Mass Spec. Tissues were collected at sacrifice at 3-4 hours post dosing with compound 1 or compound 2 in a fed state and GLUT4 mRNA expression was assessed using GLUT4 specific probes and branched DNA (bDNA) analyses (Epicenter Biotechnologies).

[4] = Glucose tolerance testing (GTT), DIO model in mice; format: in vivo, C57B1/6j mice
Excerpt: Metabolic syndrome in humans is characterized by abdominal obesity, high triglycerides, impaired fasting glucose and hyperinsulinemia. In the DIO model, mice are fed high fat diet (HFD, Research diet D12492, Research Diet, N.J.) diet (58% lard) for the entire period of the study. Compared to normal chow (NC, Harlan-Tekland #8604, WI) fed animals the HF fed mice develop several features of metabolic syndrome such as hypertriglyceridemia, hyperinsulinemia and mild hyperglycemia, as early as two weeks, on this diet. […] Additionally, GLUT4 expression is down regulated in HF-fed C57B1/6j mice after 4 weeks. This model was used to evaluate the pharmacological effects of a Compound 1 and Compound 2 in mitigating several features of HFD induced metabolic syndrome in rodents.
as §3

[5] = Insulin tolerance testing (ITT), DIO model in mice; format: in vivo, C57B1/6j mice; settings: NC and HFD cohorts, 3 and 9 mg/kg
Excerpt: as §1, §2

PPAR alpha = molecular target: T1, PPAR alpha (Homo sapiens, UniProt Q07869); settings: GAL4 chimera, CV-1 cells, luciferase; cited from earlier work
T1 construct: expressed in transfected cells; host or cells: CV-1 cells
T1 sequence (Q07869 239-466 limits assumed): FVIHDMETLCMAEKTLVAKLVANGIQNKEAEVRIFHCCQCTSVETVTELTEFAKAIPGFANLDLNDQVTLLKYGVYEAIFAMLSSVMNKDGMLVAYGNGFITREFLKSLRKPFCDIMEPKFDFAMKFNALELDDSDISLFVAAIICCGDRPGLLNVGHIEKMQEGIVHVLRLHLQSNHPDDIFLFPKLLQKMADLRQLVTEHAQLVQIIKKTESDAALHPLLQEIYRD

PPAR delta = molecular target: T2, PPAR delta (Homo sapiens, UniProt Q03181); settings: GAL4 chimera, CV-1 cells, luciferase; cited from earlier work
T2 construct: expressed in transfected cells; host or cells: CV-1 cells
T2 sequence (Q03181 211-439 limits assumed): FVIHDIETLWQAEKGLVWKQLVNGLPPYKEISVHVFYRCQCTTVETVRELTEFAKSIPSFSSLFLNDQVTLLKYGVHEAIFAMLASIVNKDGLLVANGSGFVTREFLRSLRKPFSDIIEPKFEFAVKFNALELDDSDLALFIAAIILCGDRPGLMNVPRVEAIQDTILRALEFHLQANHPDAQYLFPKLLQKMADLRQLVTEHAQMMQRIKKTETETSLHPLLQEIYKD

PPAR gamma = molecular target: T3, PPAR gamma (Homo sapiens, UniProt P37231); settings: GAL4 chimera, CV-1 cells, luciferase; cited from earlier work
T3 construct: expressed in transfected cells; host or cells: CV-1 cells
T3 sequence (P37231 238-503 limits assumed): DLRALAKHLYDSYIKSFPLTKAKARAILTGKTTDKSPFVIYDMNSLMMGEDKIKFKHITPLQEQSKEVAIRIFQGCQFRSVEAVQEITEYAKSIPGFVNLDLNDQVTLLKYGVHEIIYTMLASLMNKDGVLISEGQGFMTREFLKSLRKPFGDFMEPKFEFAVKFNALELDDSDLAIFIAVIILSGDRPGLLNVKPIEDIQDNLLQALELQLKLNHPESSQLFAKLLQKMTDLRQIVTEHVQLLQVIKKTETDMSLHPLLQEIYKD

GLUT4 = settings: in vivo; cited from earlier work
[6] = in vivo; cited from earlier work
GLUT4 translocation = settings: ZDF ob/ob and DIO C57BL/6 mice; cited from earlier work

Structure (SMILES)	EC50 (PPAR alpha)	EC50 (PPAR delta)	EC50 (PPAR gamma)	other results
C[C@@H]1CN(c2ccc(OC(F)(F)F)cc2)C[C@H](C)N1S(=O)(=O)c1cccc2c1CC(C(=O)O)C2 (mixture of isomers) [Compound 1, 4-[cis-2,6-Dimethyl-4-(4-trifluoromethoxy-phenyl)-piperazine-1-sulfonyl]-indan-2-carboxylic acid]	> 100 µM	< 5 µM	> 100 µM	GLUT4 mRNA expression in murine muscle tissue (FIG. 1) (GLUT4 mRNA expression [1]): no significant increase; GLUT4 mRNA expression in murine adipose tissue (FIG. 3) (GLUT4 mRNA expression [2]; 8 weeks of treatment, HFD cohort): upregulated; GLUT4 mRNA expression in murine adipose tissue (FIG. 2) (GLUT4 mRNA expression [2]; 14 days of treatment, HFD fed mice): normalized expression of GLUT-4; uptake (concentration) in murine adipose tissue (FIG. 4) [3]: preferentially uptaken over Compound 2; plasma glucose during GTT, effect by dose (FIG. 6) ([4]; HFD cohort, 3 and 9 mg/kg): an effect was seen at both doses; plasma glucose during GTT (FIGS. 5 and 6) ([4]; NC and HFD cohorts): increased glucose disposal; plasma insulin during GTT (FIGS. 7 and 8) ([4]; NC and HFD cohorts): decreased insulin levels; plasma glucose during ITT (FIGS. 9 and 10) [5]: attenuated plasma glucose output
C[C@@H]1CN(Cc2ccc(OC(F)(F)F)cc2)C[C@H](C)N1S(=O)(=O)c1cccc2c1CC(C(=O)O)C2 (mixture of isomers) [Compound 3, 4-[cis-2,6-Dimethyl-4-(4-trifluoromethoxy-benzyl)-piperazine-1-sulfonyl]-indan-2-carboxylic acid]	5 to 100 µM	< 5 µM	5 to 100 µM	–
C[C@@H]1CN(c2ccc(OC(F)(F)F)cc2)C[C@H](C)N1S(=O)(=O)c1cccc2c1C[C@@H](C(=O)O)C2 [Compound 1A, (S)-4-[cis-2,6-Dimethyl-4-(4-trifluoromethoxy-phenyl)-piperazine-1-sulfonyl]-indan-2-carboxylic acid]	> 100 µM	< 5 µM	> 100 µM	–
Cc1cc(SCc2sc(-c3ccc(C(F)(F)F)cc3)nc2C)ccc1OCC(=O)O [Compound 2, {2-Methyl-4-[4-methyl-2-(4-trifluoromethyl-phenyl)-thiazol-5-ylmethylsulfanyl]-phenoxy}-acetic acid]	–	–	–	expression of GLUT4 in rat skeletal muscle (GLUT4): increased expression of GLUT4; tissue partitioning [6]: preferentially partitions into muscular tissue
C[C@@H]1CN(Cc2ccc(OC(F)(F)F)cc2)C[C@H](C)N1S(=O)(=O)c1cccc2c1C[C@@H](C(=O)O)C2 [Compound 3A, (S)-4-[cis-2,6-Dimethyl-4-(4-trifluoromethoxy-benzyl)-piperazine-1-sulfonyl]-indan-2-carboxylic acid]	> 100 µM	< 5 µM	5 to 100 µM	–
CC(=O)NCCOC(=O)[C@H](Oc1cccc(C(F)(F)F)c1)c1ccc(Cl)cc1 [MBX-102]	–	–	–	insulin sensitivity and GLUT4 translocation in adipose and muscular tissue (GLUT4 translocation): enhanced insulin sensitivity and GLUT4 translocation
